Laboratory results from ChEMBL document CHEMBL1151136, “Searching for Bioactive Compounds: Various Strategies” (J Nat Prod, 1990).
Values after ≈ are worked out from the molar mass of the structure shown.

Key:
[1] = Cytotoxicity against ovarian cancer cells; assay type: functional; conditions: Cancer cell lines; read-out: ID50 (the source's name)
Penicillium citrinum = experiment: Antimicrobial activity against Penicillium citrinum; assay type: functional
Bacillus subtilis = experiment: Antimicrobial activity against Bacillus subtilis; assay type: functional
Staphylococcus aureus = experiment: Antimicrobial activity against Staphylococcus aureus; assay type: functional
[2] = Cytotoxicity against CHL cells; assay type: cell-based, Cricetulus griseus; conditions: chinese hamster, read-out: LD50 (the source's name)

SMILES | MIC (Bacillus subtilis) | MIC (Staphylococcus aureus) | other results
C=C/C(C)=C/C[C@]1(C)[C@H]2C[C@@H](O)C=C3[C@H](OC(C)=O)O[C@@H](OC(C)=O)[C@@]32[C@H](OC(=O)/C=C/c2ccccc2)C[C@@H]1C |  |  | IC50 [1]: 35 µg/mL (≈ 62 µM)
CC(=O)O[C@@H]1[C@H](OC(C)=O)[C@@H](Oc2c(-c3ccc(O)cc3)oc3cc(O)cc(O)c3c2=O)O[C@H](C)[C@H]1OC(=O)/C=C/c1ccc(O)cc1 |  |  | MIC (Penicillium citrinum): < 30 µg/mL
C=C(CC(=O)O)C(=O)C[C@@]1(C)[C@H](C)CC[C@@]2(C)C(C)=CCC[C@H]12 | 25 µg/mL (≈ 78.5 µM) | 20 µg/mL (≈ 62.8 µM) | 
C=C/C(C)=C/C[C@@]1(C)[C@@H](C)[C@H](OC(=O)CCCCCCCCC)[C@@H](OC(C)=O)[C@]23C(=C[C@H](O)C[C@@]21C)[C@@H](OC(C)=O)O[C@@H]3OC(C)=O |  |  | CC50 [2]: 770 nM
CN[C@@H]1[C@H](O[C@H]2[C@H](O[C@H]3[C@H](O)[C@@H](O)[C@H](N=C(N)N)[C@@H](O)[C@@H]3N=C(N)N)O[C@@H](C)[C@]2(O)C=O)O[C@@H](CO)[C@H](O)[C@H]1O.CN[C@@H]1[C@H](O[C@H]2[C@H](O[C@H]3[C@H](O)[C@@H](O)[C@H](N=C(N)N)[C@@H](O)[C@@H]3N=C(N)N)O[C@@H](C)[C@]2(O)C=O)O[C@@H](CO)[C@H](O)[C@H]1O.O=S(=O)(O)O.O=S(=O)(O)O.O=S(=O)(O)O [STREPTOMYCIN SULFATE] | 12.5 µg/mL | 6.3 µg/mL | 
